Results on one compound are retold here after ChEMBL document CHEMBL1201862, “PubChem BioAssay data set” (2004).

Some test systems named below: SF-268; HCC 2998; OVCAR-4; HL-60; MDA-MB-435; NCI-H23; T47D; HCT-116; Malme-3M; ACHN; SNB-19; EKVX; HOP-18; OVCAR-3; NCI-H522; MDA-MB-231; SF-295; SF-539; SK-MEL-28; COLO 205.
What all share (test): growth of human tumour cells (NCI), 48 h

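A five-concentration, 48-hour dose response in 96-well plates underlies each endpoint, interpolated linearly between surrounding concentrations. GI50 is the concentration that inhibits growth by half.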 Active and inactive are the calls of the source. No stated cut-off is given here; in the data, active = GI50 up to about 1.1 µM and inactive = higher.

Turning to `CC(C(=O)[O-])S(=O)(=O)O.CCc1c2cc(OC)c(OC)cc2cc2c3cc(OC)c(OC)cc3cc[n+]12`, the GI50 in the assay with SF-268 was 1.11 µM (active); with HCC 2998, 15 µM (inactive); with OVCAR-4 it was 10.2 µM (inactive); in the assay on HL-60, 20.8 µM (inactive); in the assay on MDA-MB-435, 4.27 µM (inactive); with NCI-H23, 15.9 µM (inactive). For the same compound, the GI50 was 5.11 µM (inactive) in the assay on T47D; 17.8 µM (inactive) in the assay with HCT-116; 8.79 µM (inactive) with Malme-3M; 58.9 µM (inactive) with ACHN; 3.94 µM (inactive) in the assay on SNB-19; 67.6 µM (inactive) in the assay on EKVX. In addition, the GI50 with HOP-18 was 68.1 µM (inactive); in the assay with OVCAR-3 it was 12.4 µM (inactive); in the assay with NCI-H522 it was 3.09 µM (inactive); in the assay on MDA-MB-231, 20.1 µM (inactive); in the assay on SF-295, 67.3 µM (inactive); in the assay with SF-539, 9.77 µM (inactive). Also, the GI50 is 21.7 µM (inactive) in the assay on SK-MEL-28 and 4.78 µM (inactive) in the assay on COLO 205.
